Experimental data from US9908877B2, “Imidazo[1,5-a]pyridinium ion fluorophores, and methods of making and using the same” (Indiana University Research and Technology Corporation, priority 2013, dated 2018).
Where “and” joins values, the source holds several entries; their conditions need not be identical. Identical values can stand only once.

How the values were obtained:
Format in all cases: physicochemical
[1] = Fluorescence response to trifluoroacetic acid / DBU in acetonitrile
Experimental: A 30 μM solution of Compound 6 in acetonitrile was prepared by adding 99 μL of a stock solution of 3.04 mM Compound 6 in methanol to 10 mL of acetonitrile. An initial fluorescence emission spectrum of the solution was obtained and is illustrated by curve (i) in FIG. 1A.
A series of approximately 13.8 μL aliquots of trifluoroacetic acid (TFA) were then added to the 30 μM solution of Compound 6 until a total concentration of 60.0 mM of TFA was present in the solution. (The total amount of TFA present in the solution corresponded to 2000 equivalents of acid per equivalent of Compound 6.) The fluorescence emission spectrum of the resulting solution was obtained and is illustrated by curve (ii) in FIG. 1A.
A base, i.e., 1,8-diazabicyclo[5.4.0]undec-7-ene (DBU), was then added to the solution to neutralize the acid until a concentration of 90 mM DBU was obtained. The fluorescence emission spectrum of the resulting solution was obtained and is illustrated by curve (iii) in FIG. 1A. The fluorescence emission intensity at λem,max=565 nm increased as the amount of base present in the system increased and the fluorescence emission intensity at λem,max=405 nm decreased as the amount of base present in the system increased, which reflected Compound 6's ratiometric response to the changing base concentration in acetonitrile.
A 30 μM solution of Compound 7 in acetonitrile was prepared by adding 84 μL of a stock solution of 3.58 mM Compound 7 in methanol to 10 mL of acetonitrile. The emission spectrum of the solution was then obtained and is illustrated by curve (i) in FIG. 1B.
A series of approximately 13.8 μL aliquots of TFA were then added to the 30 μM solution of Compound 7 until a total concentration of 60.0 mM TFA was present in the solution (which corresponded to 2000 equivalents of acid per equivalent of Compound 7). The fluorescence emission spectrum of the solution was obtained and is illustrated by curve (ii) in FIG. 1B.
After the 60 mM TFA concentration was achieved, DBU was gradually added to the solution until a total concentration of 90 mM DBU was present in the solution. The fluorescence spectrum of the solution was obtained and is illustrated by curve (iii) in FIG. 1B.
An aliquot of 50 μL of trifluoroacetic acid was then added to the system, and the fluorescence emission spectrum was obtained and is illustrated by the curved line with a peak at 360 nm in FIG. 6A.
Compound 10 was placed in neat acetonitrile and its emission spectrum was monitored as trifluoroacetic acid was added to the acetonitrile in incremental amounts to achieve a solution that included an acid concentration ranging from 0 to 0.2 M. After each acid addition the sample was excited with radiation of a wavelength 340 nm, and its fluorescence emission spectrum was monitored. The results are illustrated in FIG. 7A.
The solution of Compound 10 in acetonitrile was titrated with trifluoroacetic acid (TFA). […] The first stage, which occurred with the addition of the initial aliquots of TFA, was a slight increase intensity at 580 nm, as illustrated in FIG. 7A. As more TFA was added to the system, a second transition occurred in which the emission at 580 nm began to decrease and as the emission at 400 nm began to increase, as illustrated in FIG. 7B. A plot of the emission intensity at 580 nm versus pH and at 400 nm versus pH is illustrated in FIG. 7C.
Compounds 10, 11, and 12 were then each individually added, at a concentration of 30 μM, to acetonitrile and the emission spectrum of each was monitored. The compounds emitted at 600 nm with an intensity of about 7.57×10^5 arbitrary units (a.u.) in neat acetonitrile. […] FIG. 8B illustrates the emission properties of Compound 12.

[2] = Fluorescence emission spectrum (maximum emission wavelength)
Experimental: Method for Obtaining a Fluorescence Emission Spectrum
Fluorescence emission spectra are obtained and recorded on a QM-4-CW Spectrofluorometer using FeliX32 software (Photon Technology International, Inc., Birmingham, N.J.).
The compounds were analyzed at 298° K according to the Method for Obtaining Ultraviolet-Visible Light Spectrum (30 μM acetonitrile) to obtain the maximum absorbance wavelength (λabs,max), Method for Obtaining Fluorescence Emission Spectrum (30 μM acetonitrile) to obtain the maximum emission wavelength (λem,max) and Method for Determining Quantum Yield (ΦF) (30 μM acetonitrile) at the concentration, in the solvent, and with the counter ion indicated in Table 1. The compounds included hydrogen at each R group that is not otherwise specified.
Compounds 6, 7, 9, 11-14 and 21 were analyzed according to: the Method for Obtaining Ultraviolet-Visible Light Spectrum to obtain the maximum absorbance wavelength (λabs,max), the Method for Obtaining Fluorescence Emission Spectrum to obtain the maximum emission wavelength (λem,max), and the Method for Determining Quantum Yield (ΦF) in the solvent and with the counter ion indicated in Table 3.

[3] = Fluorescence emission in a series of organic solvents; conditions: 30 μM, excited at 360 nm
Experimental: Compound 6 was placed in the series of organic solvents at a concentration of 30 μM, excited with radiation at 360 nm, and monitored for fluorescence emission. The organic solvent, intensity of fluorescence emission (ET), and maximum emission wavelength in nm and cm^−1, are set forth below in Table 2.

[4] = pKa from fluorescence intensity versus pH; conditions: non-linear regression of fluorescence intensity versus pH, buffered water pH 2.5 to 7.5
Experimental: Method for Determining pKa
A pKa value is determined by plotting fluorescence intensity (Imax) at emission maxima against pH and fitting the result to the non-linear expression in equation (1) (i.e., eq.(1)). In eq (1), a and b are the molar coefficient of the acid (HA) and base (A^−) form, respectively, and c is the combined overall concentration of the acid and base form. i.e., c=[HA]+[A^−].

[5] = Dimethylsulfoxide (ET(30) 45.1)

λem,max (fluorescence emission) ([1]; 30 μM in acetonitrile in the absence of trifluoroacetic acid): 565 nm | λem,max (fluorescence emission) ([1]; 30 μM in acetonitrile in the presence of trifluoroacetic acid (60.0 mM TFA)): 400 nm and 405 nm | λem, max Em ([2]; H2O (pH not given), 30 μM): 580 nm | λem, max Em ([2]; H2O pH = 2.5, 30 μM): 400 nm | λem, max Em ([2]; MeCN + 13.8 uL TFA, 30 μM): 405 nm | λem, max Em ([2]; MeCN, 30 μM): 565 nm | maximum emission Wavelength ([3]; Acetonitrile (ET(30) 45.6)): 559 nm | maximum emission wavenumber ([3]; Acetonitrile (ET(30) 45.6)): 17889.09 cm⁻¹ | maximum emission Wavelength ([3]; Benzene (ET(30) 34.3)): 567 nm | maximum emission wavenumber ([3]; Benzene (ET(30) 34.3)): 17636.68 cm⁻¹ | maximum emission Wavelength ([3]; Chloroform (ET(30) 39.1)): 533 nm | maximum emission wavenumber ([3]; Chloroform (ET(30) 39.1)): 18761.73 cm⁻¹ | maximum emission Wavelength ([3]; Dichloromethane (ET(30) 40.7)): 535 nm | maximum emission wavenumber ([3]; Dichloromethane (ET(30) 40.7)): 18691.59 cm⁻¹ | maximum emission Wavelength [3, 5]: 567 nm | maximum emission wavenumber [3, 5]: 17636.68 cm⁻¹ | maximum emission Wavelength ([3]; Hexane (ET(30) 31)): 561 nm | maximum emission wavenumber ([3]; Hexane (ET(30) 31)): 17825.31 cm⁻¹ | maximum emission Wavelength ([3]; Tetrahydrofuran (ET(30) 37.4)): 541 nm | maximum emission wavenumber ([3]; Tetrahydrofuran (ET(30) 37.4)): 18484.29 cm⁻¹ | maximum emission Wavelength ([3]; Toluene (ET(30) 33.9)): 568 nm | maximum emission wavenumber ([3]; Toluene (ET(30) 33.9)): 17605.63 cm⁻¹ | maximum emission Wavelength ([3]; Water (ET(30) 63.1)): 576 nm | maximum emission wavenumber ([3]; Water (ET(30) 63.1)): 17361.11 cm⁻¹ | pKa [4]: 5
SMILES: CCN(CC)c1ccc(-c2c3cccc[n+]3cn2-c2ccc(OC)cc2)cc1.[Cl-] [Compound 6, 1-(4-(diethylamino)phenyl)-2-(4-methoxyphenyl)-2H-imidazo[1,5-a]pyridin-4-ium chloride]
